# Values joined by “and” are separate entries in the source; they are usually repeats but may differ in a detail not shown here. Equal entries are not always repeated.
# Tests used:
# Type in all cases: in vivo, mouse
# ApoE^–/– mice on an HFD [1] = experiment: Oil Red O staining of aortic root plaque; set-up: ORO Quantification ORO+ Heart: unit not given here
# Procedure: (§1) For 6 weeks, mice were freely administered water, water containing 150 mM SerBut, or water containing an equimolar amount of NaBut. SerBut water was pH adjusted using 10 M NaOH to a final pH of 7.4. […] In concert, mice were fed an HFD with 42% from fat and 0.2% total cholesterol (Envigo, TD-88137) ad libitum. After 6 weeks, mice were euthanized. The lMLNs, ILNs, spleen, heart, and aorta were harvested and processed for flow cytometry analysis ([67]). The liver was harvested and part was homogenized in tissue protein extraction reagent buffer (Invitrogen, 78510) supplemented with protease inhibitor mini tablets (Thermo Fisher Scientific, PIA32955) for Western blotting and qPCR. The remaining liver was fixed with 4% paraformaldehyde and embedded in paraffin for histological analysis.
# Hearts were fixed in 4% paraformaldehyde for 24 hours and cryopreserved with sucrose (15% sucrose for 24 hours, 30% sucrose for 24 hours, 1:1 30% sucrose and OCT) before being embedded in OCT (Thermo Fisher Scientific). Frozen embedded samples were sectioned at 8 μm until all 3 leaflets were visible. Aortic root sections were brought to room temperature and rehydrated with PBS. Staining solution was freshly prepared by mixing 3:2 Oil Red O (0.5% in isopropanol, Sigma Aldrich) to water. The solution was filtered through a 0.22 μm PES syringe filter (Millipore) and pipetted onto sections. After 15 minutes in a sealed dark chamber, sections were washed 3 times with water and imaged. Images were analyzed using QuPath (v0.5.0) (https://qupath.github.io). Each leaflet was circled broadly to include the plaque and then subsequently trained on the QuPath pixel classifier using the software’s artificial neural network. Training images were then tested and validated to identify the plaques to calculate their area and exclude non-plaque structures in the image. Plaque sizes were subsequently averaged and used to determine percentage Oil Red O–positive plaque area in the leaflet.
# ApoE^–/– mice on an HFD [2] = experiment: Inflammatory cytokines in plasma (LEGENDPlex); set-up: Plasma LegendPlex IFNy / Plasma LegendPlex IL-1B / Plasma LegendPlex IL-6: unit not given here
# Procedure: (§2) SerBut water was pH adjusted using 10 M NaOH to a final pH of 7.4. […] After 6 weeks, mice were euthanized. […] The liver was harvested and part was homogenized in tissue protein extraction reagent buffer (Invitrogen, 78510) supplemented with protease inhibitor mini tablets (Thermo Fisher Scientific, PIA32955) for Western blotting and qPCR. […] Blood chemical analysis was performed on an Alfa […] Chemistry Analyzer. Reagent kits from Alfa Wasserman were used according to manufacturer's instructions to analyze plasma: lipase (catalog SA1045), HDL-C (catalog SA2038, LDL-C (catalog SA1040), AST (catalog SA1053), ALT (catalog SA1052). A LEGENDPlex was utilized to analyze the concentrations of inflammatory cytokines (BioLegend).
# ApoE^–/– mice on an HFD [3] = experiment: Blood chemical analysis of plasma; set-up: Lipase / ALT / Altherogenic Lipids (Chol-HDL) / HDL-C / LDL-C: unit not given here
# Procedure: as §2
# ApoE^–/– mice on an HFD [4] = experiment: Flow cytometry of blood, lymph nodes and spleen; set-up: Treg / Th17 / F480+CD11b+ Macrophages / iNOS+ Macs / Arg1+ Macs: unit not given here
# Procedure: SerBut water was pH adjusted using 10 M NaOH to a final pH of 7.4. […] After 6 weeks, mice were euthanized. The lMLNs, ILNs, spleen, heart, and aorta were harvested and processed for flow cytometry analysis ([67]). […] The remaining liver was fixed with 4% paraformaldehyde and embedded in paraffin for histological analysis.
# Flow cytometry was performed using a BD LSRFortessa or a Cytek Aurora full-spectrum cytometer.
# ApoE^–/– mice on an HFD [5] = experiment: Histological grading and scoring of livers; set-up: key to Liver Grading and Staging: Lobular inflammation (CD3+): one focus in which more than 10 periductal CD3^+ lymphocytes are found in an ×200 field; 2 to 5 instances of more than 10 periductal CD3^+ immune cells in an ×200 field; 3: Any sample exceeding this threshold
# Procedure: as §1
# Sections (8 μm thick) were stained. Digital image files were created with an Olympus VS200 Research Slide Scanner (Olympus/Evident) with a Hamamatsu ORca-Fusion camera (Hamamatsu Photonics) at ×40 magnification. Individual images were created with the OlyVIA Viewer software (Olympus/Evident). Scoring and grading was performed by a pathologist as previously described ([48]). Immunohistochemistry grading was informed by age-matched WT controls. In age-matched WT controls, CD3^+ immune cells were seen scattered without distinct aggregate formation nor associated tissue reaction. In an ×400 field, we observed up to 25 CD3^+ immune cells scattered in an even distribution, with rare events of up to 10 periductal CD3^+ immune cells but with no associated ductal or parenchymal reaction. […] Furthermore, a score of 2 corresponds to 2 to 5 instances of more than 10 periductal CD3^+ immune cells in an ×200 field. Any sample exceeding this threshold was scored a 3.
# [6] = Blood Chemistry, 6wk, individual mice, experiments 1 and 2
# [7] = Inguinal Lymph Node Flow, individual mice
# [8] = Mesenteric Lymph Node Flow, individual mice
# [9] = liver, individual mice, 150 mM ad libitum for 6 weeks, HFD
smiles,measurement,setting,value
"CCCC(=O)OC[C@H](N)C(=O)O [SerBut, O-butyryl-L-serine]",Oil Red O–stained plaque area in the aortic root,"ApoE^–/– mice on an HFD [1]; 6 weeks, 150 mM in drinking water, HFD, compared with both control and NaBut-treated groups",significantly less
same,ORO Quantification ORO+ Heart,"ApoE^–/– mice on an HFD [1]; individual mice, experiments 1 and 2",21.0027 and 29.8005 and 22.5256 and 19.8678 and 31.4493 and 14.4105 and 13.3736 and 26.8175 and 18.8593 and 30.307 and 36.2089 and 15.3228 and 16.4207 and 38.8939 and 24.9469 and 30.9724 and 19.1725
same,plasma IL-1β,ApoE^–/– mice on an HFD [2]; 6 weeks,trend toward reduction
same,IL-6 and IFN-γ in plasma,"ApoE^–/– mice on an HFD [2]; 6 weeks, compared with control groups",reduced
same,Plasma LegendPlex IFNy,"ApoE^–/– mice on an HFD [2]; plasma, individual mice",1.54 and 21.65 and 44.82 and 28.44 and 36.42
same,Plasma LegendPlex IL-1B,"ApoE^–/– mice on an HFD [2]; plasma, individual mice",1.73 and 1.26 and 21.47 and 0.83 and 1.61 and 1.04 and 1.97 and 2.89 and 4.7
same,Plasma LegendPlex IL-6,"ApoE^–/– mice on an HFD [2]; plasma, individual mice",1.18 and 0.95 and 0.92 and 0.99 and 2.99
same,lipase in the plasma,ApoE^–/– mice on an HFD [3]; 6 weeks,no effect
same,total cholesterol or triglycerides in the plasma,ApoE^–/– mice on an HFD [3]; 6 weeks,Neither SerBut nor NaBut influenced
same,LDL-C as a fraction of total cholesterol,"ApoE^–/– mice on an HFD [3]; 6 weeks, 150 mM in drinking water, HFD",significantly reduced
same,ratio of HDL to total cholesterol,"ApoE^–/– mice on an HFD [3]; 6 weeks, compared with NaBut treatment",significantly increased
same,plasma ALT and AST,"ApoE^–/– mice on an HFD [3]; 6 weeks, compared with both water control and NaBut groups",significantly reduced
same,Altherogenic Lipids (Chol-HDL),ApoE^–/– mice on an HFD [3]; [6],948 and 1048 and 1026 and 1018 and 1032 and 880 and 848 and 784 and 1074 and 722 and 776 and 780 and 800 and 768 and 1080 and 736 and 882
same,HDL-C,ApoE^–/– mice on an HFD [3]; [6],38 and 52 and 46 and 44 and 48 and 54 and 56 and 42
same,LDL-C,"ApoE^–/– mice on an HFD [3]; Blood Chemistry, individual mice, experiments 1 and 2",320 and 324 and 382 and 332 and 336 and 378 and 454 and 290 and 460 and 258 and 354 and 282 and 292 and 318 and 416 and 268 and 238
same,ALT,"ApoE^–/– mice on an HFD [3]; plasma at 6 weeks, 150 mM in drinking water ad libitum with HFD, individual mice",30.92 and 18.78 and 25.96 and 23.5 and 26.22 and 26.76 and 26.18 and 26.36 and 22.68
same,frequency of circulating Ly6G^+CD11b^+ neutrophils,"ApoE^–/– mice on an HFD [4]; 6 weeks, compared with both NaBut- and water-treated controls",significantly reduced
same,Arg1+ Macs,ApoE^–/– mice on an HFD [4]; [7],3.53 and 2.72 and 2.64 and 3.19 and 3.9 and 5.62 and 3.61 and 5.94 and 4.82 and 4.83 and 3.4 and 2.08 and 3.78 and 5.04
same,F480+CD11b+ Macrophages,ApoE^–/– mice on an HFD [4]; [7],0.56 and 0.54 and 0.36 and 0.83 and 0.61 and 1.4 and 0.33 and 0.64 and 0.46 and 0.86 and 0.43 and 0.29
same,Th17,ApoE^–/– mice on an HFD [4]; [7],7.49 and 5.92 and 1.67 and 2.37 and 3.33 and 2.23 and 8.03 and 16.8 and 2.7
same,Th17/Treg,ApoE^–/– mice on an HFD [4]; [7],0.5095 and 0.3947 and 0.09489 and 0.1274 and 0.2068 and 0.1161 and 0.4294 and 1.037 and 0.1588
same,Treg,ApoE^–/– mice on an HFD [4]; [7],14.7 and 15 and 17.6 and 18.6 and 16.1 and 19.2 and 18.7 and 16.2 and 17
same,iNOS+ Macs,ApoE^–/– mice on an HFD [4]; [7],5.43 and 3.21 and 3.87 and 2.26 and 2.24 and 2.49 and 6.09 and 2.15 and 4.59 and 2.91 and 7.23 and 2.89 and 7.07 and 5.7
same,Th17/Treg cell ratio,ApoE^–/– mice on an HFD [4]; MLNs and spleen,reduced the Th17/Treg cell ratio
same,iNOS^+ of CD11b^+F480^+ macrophages,"ApoE^–/– mice on an HFD [4]; MLNs, not ILNs, compared with controls, but not NaBut-treated mice",significantly decreased
same,regulatory T cells,"ApoE^–/– mice on an HFD [4]; MLNs, not skin-draining lymph nodes or spleen",expanded
same,Arg1+ Macs,ApoE^–/– mice on an HFD [4]; [8],3.56 and 1.85 and 2.39 and 1.1 and 1.07 and 1.12 and 0.97 and 1.19 and 1.91 and 0.93 and 1.08 and 1.16 and 0.95
same,F480+CD11b+ Macrophages,ApoE^–/– mice on an HFD [4]; [8],5.85 and 7.28 and 6.98 and 8.63 and 11.2 and 7.11 and 5.47 and 7.35 and 5.84 and 3.45 and 4.72 and 5.77 and 7.09
same,Th17,ApoE^–/– mice on an HFD [4]; [8],7.78 and 13.7 and 14.7 and 8.43 and 9.66 and 19.2 and 12
same,Th17/Treg,ApoE^–/– mice on an HFD [4]; [8],0.5329 and 0.6372 and 0.9423 and 0.493 and 0.6114 and 1.091 and 0.7843
same,Treg,ApoE^–/– mice on an HFD [4]; [8],14.6 and 21.5 and 15.6 and 17.1 and 15.8 and 17.6 and 15.3
same,iNOS+ Macs,ApoE^–/– mice on an HFD [4]; [8],0.64 and 1 and 0.46 and 0.71 and 0.58 and 0.74 and 0.6 and 0.68 and 1.54 and 0.88 and 0.65 and 0.69
same,Th17,"ApoE^–/– mice on an HFD [4]; Spleen Flow, individual mice",0.83 and 1.07 and 1.3 and 0.97 and 1.12 and 1.08 and 1 and 1.34
same,Th17/Treg,"ApoE^–/– mice on an HFD [4]; Spleen Flow, individual mice",0.115 and 0.1219 and 0.1671 and 0.1127 and 0.16 and 0.145 and 0.1264 and 0.1603
same,Treg,"ApoE^–/– mice on an HFD [4]; Spleen Flow, individual mice",7.22 and 8.78 and 7.78 and 8.61 and 7 and 7.45 and 7.91 and 8.36
same,Blood Neutrophils: CD11b+Ly6G+ %CD45,"ApoE^–/– mice on an HFD [4]; blood, individual mice",12.2 %CD45 and 10.2 %CD45 and 11.9 %CD45 and 16 %CD45 and 15.3 %CD45 and 6.9 %CD45 and 6.35 %CD45 and 13.7 %CD45 and 8 %CD45 and 10.6 %CD45 and 17.9 %CD45 and 2.21 %CD45 and 2.25 %CD45 and 7.63 %CD45
same,"CD3^+ immune cell infiltration into the livers, lobular inflammation",ApoE^–/– mice on an HFD [5]; 6 weeks,Neither SerBut nor NaBut significantly reduced
same,hepatocellular nuclear hypertrophy,ApoE^–/– mice on an HFD [5]; 6 weeks,suppressed
same,liver steatosis (macrovesicular fat) score,ApoE^–/– mice on an HFD [5]; 6 weeks,significantly suppressed
same,overall summed histological liver score,ApoE^–/– mice on an HFD [5]; 6 weeks,reduced liver pathology
same,"Liver Grading and Staging: Balooning Grade, Hypertrophy",ApoE^–/– mice on an HFD [5]; [9],2 and 1 and 0
same,Liver Grading and Staging: Lobular inflammation (CD3+),ApoE^–/– mice on an HFD [5]; [9],1 and 0 and 2
same,"Liver Grading and Staging: Steatosis Grade, Macro fat",ApoE^–/– mice on an HFD [5]; [9],0 and 2
same,"NAS score (steatosis, inflammation, Ballooning)",ApoE^–/– mice on an HFD [5]; [9],3 and 2 and 6 and 1
